In ChEMBL document CHEMBL1145029, “Design, synthesis, and evaluation of benzothiadiazepine hydroxamates as selective tumor necrosis factor-alpha converting enzyme inhibitors” (J Med Chem, 2003):

How the values were obtained:
[1] = biological target: Matrix metalloproteinase-9 (Homo sapiens, UniProt P14780); assay: In vitro inhibitory activity against broad spectrum matrix metalloprotease-9 (MMP-9)
[2] = biological target: 72 kDa type IV collagenase (Homo sapiens, UniProt P08253)
Description: In vitro inhibitory activity against broad spectrum matrix metalloprotease-2 (MMP-2)

Interstitial collagenase = biological target: T1, Interstitial collagenase (Homo sapiens, UniProt P03956); assay: In vitro inhibitory activity against broad spectrum matrix metalloprotease-1 (MMP-1)
T1 sequence (P03956 whole entry): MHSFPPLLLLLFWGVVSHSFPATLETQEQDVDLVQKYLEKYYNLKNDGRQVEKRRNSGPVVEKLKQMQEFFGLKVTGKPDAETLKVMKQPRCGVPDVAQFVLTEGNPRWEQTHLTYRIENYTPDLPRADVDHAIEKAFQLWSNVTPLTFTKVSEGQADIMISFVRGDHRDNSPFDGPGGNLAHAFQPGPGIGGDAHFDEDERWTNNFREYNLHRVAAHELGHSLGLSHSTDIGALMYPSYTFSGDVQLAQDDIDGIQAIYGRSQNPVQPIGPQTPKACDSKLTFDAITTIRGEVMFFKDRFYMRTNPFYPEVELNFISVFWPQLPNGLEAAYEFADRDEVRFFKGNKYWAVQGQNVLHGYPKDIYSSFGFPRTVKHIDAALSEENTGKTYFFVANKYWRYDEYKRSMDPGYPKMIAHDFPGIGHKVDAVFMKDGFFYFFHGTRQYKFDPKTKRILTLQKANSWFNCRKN

[3] = biological target: T2, Disintegrin and metalloproteinase domain-containing protein 17 (Homo sapiens, UniProt P78536); assay: Ability to suppress the formation of TNF-aplha in human peripheral blood mononuclear cell assay(PBMC); format: functional
T2 sequence (P78536 whole entry, the tested form may be a part): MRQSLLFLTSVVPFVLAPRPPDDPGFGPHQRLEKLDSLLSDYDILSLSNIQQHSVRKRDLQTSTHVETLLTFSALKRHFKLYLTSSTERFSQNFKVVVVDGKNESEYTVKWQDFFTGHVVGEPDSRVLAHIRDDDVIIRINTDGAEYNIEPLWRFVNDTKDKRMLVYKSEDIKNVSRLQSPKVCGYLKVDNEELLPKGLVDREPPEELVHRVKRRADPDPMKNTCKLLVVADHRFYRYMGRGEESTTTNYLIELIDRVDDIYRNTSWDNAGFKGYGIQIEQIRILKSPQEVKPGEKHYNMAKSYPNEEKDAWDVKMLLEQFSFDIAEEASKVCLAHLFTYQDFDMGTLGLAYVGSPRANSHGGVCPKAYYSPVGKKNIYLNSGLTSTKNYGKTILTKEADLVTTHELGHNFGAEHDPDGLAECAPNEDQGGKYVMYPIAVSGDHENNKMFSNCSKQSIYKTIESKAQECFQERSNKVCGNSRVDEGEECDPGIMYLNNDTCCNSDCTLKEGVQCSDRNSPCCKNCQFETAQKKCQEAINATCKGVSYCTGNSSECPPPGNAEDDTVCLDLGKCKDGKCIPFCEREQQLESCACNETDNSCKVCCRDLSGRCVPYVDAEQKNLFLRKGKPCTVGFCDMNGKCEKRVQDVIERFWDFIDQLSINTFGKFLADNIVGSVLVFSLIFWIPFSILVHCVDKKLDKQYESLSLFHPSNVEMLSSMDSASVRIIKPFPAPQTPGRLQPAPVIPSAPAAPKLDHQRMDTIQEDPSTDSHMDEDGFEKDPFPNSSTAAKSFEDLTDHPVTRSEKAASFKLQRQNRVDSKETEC

[4] = biological target: T2, Disintegrin and metalloproteinase domain-containing protein 17; assay: Ability to suppress the formation of TNF-aplha in human whole blood assay (WBA); format: functional, tissue-based

Chain of 72 kDa type IV collagenase (P08253 whole entry): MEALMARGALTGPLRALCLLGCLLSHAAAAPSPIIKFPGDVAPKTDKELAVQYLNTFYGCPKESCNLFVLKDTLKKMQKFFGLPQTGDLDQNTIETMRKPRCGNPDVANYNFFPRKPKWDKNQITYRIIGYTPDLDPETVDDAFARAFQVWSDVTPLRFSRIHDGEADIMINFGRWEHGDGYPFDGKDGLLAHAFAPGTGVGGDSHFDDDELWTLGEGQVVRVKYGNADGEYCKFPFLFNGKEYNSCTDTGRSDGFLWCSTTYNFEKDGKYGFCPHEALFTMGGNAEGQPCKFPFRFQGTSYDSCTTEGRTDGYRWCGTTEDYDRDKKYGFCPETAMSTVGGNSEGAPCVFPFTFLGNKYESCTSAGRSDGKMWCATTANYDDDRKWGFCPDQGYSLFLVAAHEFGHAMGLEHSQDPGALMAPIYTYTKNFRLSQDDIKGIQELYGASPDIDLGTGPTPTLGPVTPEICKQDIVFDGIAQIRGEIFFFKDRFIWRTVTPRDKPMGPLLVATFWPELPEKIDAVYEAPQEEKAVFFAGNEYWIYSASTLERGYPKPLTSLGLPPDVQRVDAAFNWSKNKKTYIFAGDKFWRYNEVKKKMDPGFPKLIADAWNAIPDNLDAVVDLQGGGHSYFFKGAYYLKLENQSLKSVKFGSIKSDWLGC
Chain of Matrix metalloproteinase-9 (P14780 whole entry): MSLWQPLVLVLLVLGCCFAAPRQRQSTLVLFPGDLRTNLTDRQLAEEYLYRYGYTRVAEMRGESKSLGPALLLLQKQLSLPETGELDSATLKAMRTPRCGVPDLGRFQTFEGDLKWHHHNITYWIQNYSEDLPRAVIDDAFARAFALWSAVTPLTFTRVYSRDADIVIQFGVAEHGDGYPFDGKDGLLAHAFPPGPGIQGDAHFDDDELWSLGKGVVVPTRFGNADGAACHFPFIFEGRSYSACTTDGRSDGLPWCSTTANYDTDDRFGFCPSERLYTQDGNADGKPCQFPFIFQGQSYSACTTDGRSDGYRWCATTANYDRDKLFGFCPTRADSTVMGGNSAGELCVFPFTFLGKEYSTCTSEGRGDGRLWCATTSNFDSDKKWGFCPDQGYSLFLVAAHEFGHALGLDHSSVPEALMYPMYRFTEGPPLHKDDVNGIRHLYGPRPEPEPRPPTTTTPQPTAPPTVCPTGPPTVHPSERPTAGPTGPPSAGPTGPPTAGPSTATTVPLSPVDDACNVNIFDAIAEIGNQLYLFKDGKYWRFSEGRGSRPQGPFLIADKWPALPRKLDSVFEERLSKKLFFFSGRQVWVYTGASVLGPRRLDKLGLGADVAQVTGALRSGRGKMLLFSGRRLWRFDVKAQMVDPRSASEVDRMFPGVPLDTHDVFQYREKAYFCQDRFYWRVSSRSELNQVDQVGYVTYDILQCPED

SMILES	Ki [1] [nM]	Ki [2] [nM]	Ki (Interstitial collagenase) [nM]	IC50 [3] [nM]	IC50 [4] [nM]
C[C@H](C(=O)NO)N1CCNc2ccccc2S1(=O)=O	567	75	> 4950		
COc1cc(COc2ccc3c(c2)NCCN([C@H](CC(C)C)C(=O)NO)S3(=O)=O)cc(OC)c1	> 2130	154	> 4950	5400	
Cc1cc(C)cc(COc2ccc3c(c2)NCCN([C@H](C)C(=O)NO)S3(=O)=O)c1	> 2130	136	> 4950		
COc1cc(COc2ccc3c(c2)NCCN([C@@H](C(=O)NO)C(C)C)S3(=O)=O)cc(OC)c1	981	647	> 4950	4000	
Cc1cc(C)cc(C(=O)Nc2ccc3c(c2)NCCN([C@H](C)C(=O)NO)S3(=O)=O)c1	993	94	> 4950		
C[C@H](C(=O)NO)N1CCNc2cc(-c3ccccc3)ccc2S1(=O)=O	8	< 2.8	272		
C[C@H](C(=O)NO)N1CCNc2cc(Oc3ccc(C(F)(F)F)cc3)ccc2S1(=O)=O	7	< 2.8	> 4950	840	
COc1cc(COc2ccc3c(c2)NCCN([C@H](CCCCNC(=O)OC(C)(C)C)C(=O)NO)S3(=O)=O)cc(OC)c1	118	32	> 4950		
Cc1cc(COc2ccc3c(c2)NCCN([C@H](C)C(=O)NO)S3(=O)=O)cc(C)n1	1840	75	> 4950	2900	
C[C@H](C(=O)NO)N1CCNc2cc(-c3ccccc3C(F)(F)F)ccc2S1(=O)=O	> 2130	2520	> 4950		
CCOc1cc(COc2ccc3c(c2)NCCN([C@H](CCCC(=O)OC)C(=O)NO)S3(=O)=O)cc(OCC)c1	> 2130	1380	> 4950	1100	24000
COc1ccc2c(c1)NCCN([C@@H](C(=O)NO)C(C)C)S2(=O)=O	751	52	732		
COc1ccc2c(c1)NCN([C@H](C)C(=O)NO)S2(=O)=O	1050	312	> 4950		
CC(C)C[C@H](C(=O)NO)N1CCNc2cc(O)ccc2S1(=O)=O	80	11	479	9500	
C[C@H](C(=O)NO)N1CCNc2cc(Oc3ccc([N+](=O)[O-])cc3)ccc2S1(=O)=O	19	8	> 4950	1200	15000
CCOc1cc(COc2ccc3c(c2)NCCN([C@H](C)C(=O)NO)S3(=O)=O)cc(OCC)c1	> 2130	690	> 4950	4500	
COc1cc(COc2ccc3c(c2)NCCN([C@H](CCCCNS(C)(=O)=O)C(=O)NO)S3(=O)=O)cc(OC)c1	> 2130	391	> 4950	1900	38000
CC(C)C[C@H](C(=O)NO)N1CCNc2cc(OCc3ccccc3)ccc2S1(=O)=O	< 2.1	< 2.8	548	350	

SMILES	Ki [1] [nM]	Ki [2] [nM]	Ki (Interstitial collagenase) [nM]	IC50 [3] [nM]	IC50 [4] [nM]
COc1cc(COc2ccc3c(c2)NCCN([C@H](CCCCN)C(=O)NO)S3(=O)=O)cc(OC)c1	> 2130	231	> 4950		
COc1cc(COc2ccc3c(c2)NCCN([C@H](C)C(=O)NO)S3(=O)=O)cc(OC)c1	> 2130	491	> 4950	770	28000
C[C@H](C(=O)NO)N1CCNc2cc(Oc3ccc(-c4ccccc4)cc3)ccc2S1(=O)=O	< 2.1	< 2.8	2020		
C[C@H](C(=O)NO)N1CCNc2cc(O)ccc2S1(=O)=O	100	< 2.8	980		
O=C(CN1CCNc2ccccc2S1(=O)=O)NO	> 2130	1920	> 4950		
C[C@H](C(=O)NO)N1CCNc2cc(OCc3ccccc3)ccc2S1(=O)=O	3.6	< 2.8	> 4950		
C[C@H](C(=O)NO)N1CCNc2cc(Oc3cccc([N+](=O)[O-])c3)ccc2S1(=O)=O	96	85	> 4950	470	1400
COC(=O)CCC[C@H](C(=O)NO)N1CCNc2cc(OCc3cc(OC)cc(OC)c3)ccc2S1(=O)=O	> 2130	332	> 4950	900	
COc1ccc2c(c1)NCCN(CC(=O)NO)S2(=O)=O	> 2130	1500	> 4950		
C[C@H](C(=O)NO)N1CCNc2cc(OCc3cc(Cl)cc(Cl)c3)ccc2S1(=O)=O	1210	49	> 4950	940	
Cc1nc(COc2ccc3c(c2)NCCN([C@@H](C(=O)NO)C(C)C)S3(=O)=O)sc1C	> 2130	361	> 4950	24500	
COC(=O)CC[C@H](C(=O)NO)N1CCNc2cc(OCc3cc(OC)cc(OC)c3)ccc2S1(=O)=O	> 2130	1590	> 4950	7200	
C[C@H](C(=O)NO)N1CCNc2cc(Oc3ccccc3)ccc2S1(=O)=O	3	23	> 4950		
CCOc1cc(COc2ccc3c(c2)NCCN([C@H](CCC(=O)OC)C(=O)NO)S3(=O)=O)cc(OCC)c1	> 2130	960	> 4950	6200	
COc1ccc(Oc2ccc3c(c2)NCCN([C@H](C)C(=O)NO)S3(=O)=O)cc1	< 2.1	< 2.8	> 4950		
COc1ccc2c(c1)NCCN([C@H](C)C(=O)NO)S2(=O)=O	104		1060		
CCOc1cc(COc2ccc3c(c2)NCCN([C@@H](C(=O)NO)C(C)C)S3(=O)=O)cc(OCC)c1	> 2130	3000	> 4950	8200	
COc1cc(CNc2ccc3c(c2)NCCN([C@H](CC(C)C)C(=O)NO)S3(=O)=O)cc(OC)c1	347	75	> 4950		
